Measurements: US20240350463A1, “SMALL MOLECULE COMPOUNDS” (APERTOR PHARMACEUTICALS, INC., priority 2021, published 2024)

Key:
[1] = system: mTOR activity (phospho-p70S6K); experiment: phospho-p70S6K FACS in activated mouse T-cells; assay type: cell-based
[2] = system: CD8 cells isolated from p14 transgenic mice; experiment: CD8 CTV-labelled proliferation assay; assay type: cell-based, mouse; conditions: activated for 72 hours; 10 nM, 100 nM, and 100 μM
Description: The five analogs and rapamycin were assayed for their effect on proliferation and correlation to p70S6K inhibitory activity. […] The proliferation was measured by FACS. The five analogs were tested at varying concentrations (10 nM, 100 nM, and 100 μM), activated for 72 hours with rapamycin and DMSO treated controls.
CD8 cells were isolated from p14 transgenic mice, then labelled with CTV. The labelled cells then were activated with plate-bound anti-CD3 (5 μg/mL) and soluble anti-CD28 (2 μg/mL), along with rapamycin, rapamycin analog, or DMSO. After activation of 48 hours and 72 hours, the cells were collected to assay the CVT labelling signal using flow cytometry. All rapamycin analogs decrease proliferation in CD8 cells, with varying potency (FIG. 12).

[3] = system: naïve CD4+ mouse T-cells; experiment: expansion of CD62L+ memory T-cells (FACS); assay type: cell-based
Description: RAP23 was further evaluated by treating naïve CD4+ T-cells at multiple concentrations (1 nM to 1 uM) for expansion of CD62L+ memory T-cells. […] These 5 compounds were identified to have reduced immunosuppression (with improved safety) with maximum and durable expansion of memory T-cells.

[4] = system: conventional T cells; experiment: culture of conventional T cells with RAP35; assay type: cell-based
[5] = system: Treg cells; experiment: treatment of Treg cells with expander beads; assay type: cell-based; conditions: 100 nM
[6] = system: naïve CD4+ mouse T cells; experiment: FACS of naïve CD4+ T cells for CD4+CD25+FOXP3+; conditions: 1 uM
[7] = stability during semi-preparative HPLC; assay type: physicochemical; conditions: approximately one fifth transformed spontaneously to a more nonpolar compound
Description: To accumulate 35-desmethylrapamycin (RAP35) and 35-desmethyl-27-demethoxyrapamycin (RAP35/27) for characterization and bioactivity assays, a 7.2-L scale of fermentation was conducted. 7.2 L fermentation medium was prepared and aliquoted into eighteen 2 L Erlenmeyer flasks 20 mL of the seed culture was inoculated into each 2 L Erlenmeyer flask, which was then capped with 8-layer gauze. The fermentation was conducted at 28° C., 220 rpm for 4 days. To process the culture, the fermentation broth was centrifuged at 9,000 g for 10 min at room temperature, and the cell pellet was collected and combined. After transferring the cells into a 5 L glass beaker, 2 volumes of acetonitrile were added into 1 volume of the cells. The mixture was stirred vigorously using a magnetic stirrer at room temperature for 1 h. The mixing was halted, and the mixture was allowed to settle under gravity for 30 min. The solvent layer was poured into a 5 L Erlenmeyer flask, and another 2 volumes of acetonitrile was added into the cells for extraction. After three times of extraction in total, the solvent layers were combined and concentrated under reduced pressure. […] The absorbance at 278 nm wavelength was monitored. […]

Question: Which “inhibition of p70S6 high signal” value ([1]; even at 1 uM) does the source give for `CO[C@H]1C[C@@H]2CC[C@@H](C)[C@@](O)(O2)C(=O)C(=O)N2CCCC[C@H]2C(=O)O[C@H]([C@H](C)C[C@@H]2CC[C@@H](O)[C@H](OC)C2)CC(=O)[C@H](C)/C=C(\C)[C@@H](O)[C@@H](OC)C(=O)[C@H](C)CC/C=C/C=C/C=C/1C` [RAP23, (3S,6R,7E,9R,10R,12R,15E,17E,19E,21 S,23S,26R,27R,34aS)-9,27-dihydroxy-3-((R)-1-((1S,3R,4R)-4-hydroxy-3-methoxycyclohexyl)propan-2-yl)-10,21-dimethoxy-6,8,12,20,26-pentamethyl-9,10,12,13,14,21,22,23,24,25,26,27,32,33,34,34a-hexadecahydro-3H-23,27-epoxypyrido[2,1-c][1]oxa[4]azacyclohentriacontine-1,5,11,28,29(41H,6H,31H)-pentaone] here?
Answer: never fully inhibited

Question: And the “proliferation relative to RAP35 and rapamycin” value [2]?
Answer: increased proliferation

Question: What about the “generation of memory versus inhibition of proliferation” value [3] of the same compound?
Answer: promote potent generation of memory without potently inhibiting proliferation

Question: What about the “phospho-p70S6K low/CD62L+ high phenotype relative to all doses of rapamycin” value ([3]; 1 nM to 1 uM) of the same compound?
Answer: reduced

Question: What about the “portion of cells with phospho-p70S6K high/CD62L+ high phenotype” value ([3]; 1 nM to 1 uM) of the same compound?
Answer: 7-10%

Question: Which p70S6 high cells ([1]; overnight stimulation, therapeutic concentrations (1-200 nM)) does the source give for `CO[C@H]1C[C@@H]2CC[C@@H](C)[C@@](O)(O2)C(=O)C(=O)N2CCCC[C@H]2C(=O)O[C@H](CC[C@@H]2CC[C@@H](O)[C@H](OC)C2)CC(=O)[C@H](C)/C=C(\C)[C@@H](O)[C@@H](OC)C(=O)[C@H](C)C[C@H](C)/C=C/C=C/C=C/1C` [RAP35, (3R,6R,7E,9R,10R,2R,14S,15E,17E,19E,21S,23S,26R,27R,34aS)-9,27-dihydroxy-3-(2-((1S,3R,4R)-4-hydroxy-3-methoxycyclohexyl)ethyl)-10,21-dimethoxy-6,8,12,14,20,26-hexamethyl-9,10,12,13,14,21,22,23,24,25,26,27,32,33,34,34a-hexadecahydro-3H-23,27-epoxypyrido[2,1-c][1]oxa[4]azacyclohentriacontine-1,5,11,28,29(4H,6H,31H)-pentaone] here?
Answer: significantly reduced

Question: And the CCR7 expression [4]?
Answer: increased

Question: And the CD45RO expression [4]?
Answer: decreased

Question: And the “level of phosphorylation of 4EBP1 and S6” value ([4]; 100 nM)?
Answer: mTOR pathway was being targeted

Question: What about the anti-inflammatory effects ([4]; Cell Proliferation Dye and phenotypic markers) of the same compound?
Answer: promising anti-inflammatory effects

Question: And the “expression of CCR7” value [5]?
Answer: reduce

Question: And the “expression of CD45RO” value [5]?
Answer: reduce

Question: What about the “expression of CXCR3” value [5] of the same compound?
Answer: reduce

Question: What about the “phosphorylation of 4EBP1” value [5] of the same compound?
Answer: reduce

Question: And the “phosphorylation of S6” value [5]?
Answer: reduce

Question: What about the effect on differentiation [6] of the same compound?
Answer: strong effect

Question: For `CO[C@H]1C[C@@H]2CC[C@@H](C)[C@@](O)(O2)C(=O)C(=O)N2CCCC[C@H]2C(=O)O[C@H](CC[C@@H]2CC[C@@H](O)[C@H](OC)C2)CC(=O)[C@H](C)/C=C(\C)[C@@H](O)CC(=O)[C@H](C)C[C@H](C)/C=C/C=C/C=C/1C` [RAP35/27A, (3R,6R,7E,9S,12R,14S,5E,17E,19E,21S,23S,26R,27R,34aS)-9,27-dihydroxy-3-(2-((1S,3R,4R)-4-hydroxy-3-methoxycyclohexyl)ethyl)-21-methoxy-6,8,12,14,20,26-hexamethyl-9,10,12,13,14,21,22,23,24,25,26,27,32,33,34,34a-hexadecahydro-3H-23,27-epoxypyrido[2,1-c][1]oxa[4]azacyclohentriacontine-1,5,11,28,29(4H,6H,31H)-pentaone], which “stability in the process of semi-preparation” value [7] is on record?
Answer: tended to be unstable
